Assay results from publication PMC8523698, “Preclinical characterization of an intravenous coronavirus 3CL protease inhibitor for the potential treatment of COVID19” (Nature Communications, 2021).
Values joined by “and” are separate entries in the source; they are usually repeats but may differ in a detail not shown here. Equal entries are not always repeated.

What was measured:
[1] = Rat 4-day continuous intravenous infusion exploratory non-GLP toxicity study
[2] = molecular target: MHV-CoV 3CL^pro (Murine coronavirus, UniProt P0C6X9); format: biochemical
[3] = Metabolic stability in pooled human liver microsomes (intrinsic clearance); settings: both, pH 7.5
[4] = molecular target: IBV-CoV 3CL^pro (Avian infectious bronchitis virus, UniProt P0C6Y1); test: biochemical; settings: for Initial Velocity: triplicate, listed as Compound F2
[5] = system: CYP3A; test: Enzyme kinetics of metabolite formation in HLM and effect of CYP3A inhibitor ketoconazole
[6] = Liver S9 binding by equilibrium dialysis; settings: for recovery at 6 h: human liver S9, %Recovery
[7] = Dog pharmacokinetic study; settings: for clearance / half-life / Vd: male, Beagle, dog, plasma, iv; for Vd: Vdss
[8] = In vitro blood to plasma ratio; format: in vitro ADME; settings: for Plasma concentration (Cp) / Whole blood concentration (Cb): human blood, substrate 1 µM

IBV-CoV 3CL^pro, sequence (P0C6Y1 2780-3086): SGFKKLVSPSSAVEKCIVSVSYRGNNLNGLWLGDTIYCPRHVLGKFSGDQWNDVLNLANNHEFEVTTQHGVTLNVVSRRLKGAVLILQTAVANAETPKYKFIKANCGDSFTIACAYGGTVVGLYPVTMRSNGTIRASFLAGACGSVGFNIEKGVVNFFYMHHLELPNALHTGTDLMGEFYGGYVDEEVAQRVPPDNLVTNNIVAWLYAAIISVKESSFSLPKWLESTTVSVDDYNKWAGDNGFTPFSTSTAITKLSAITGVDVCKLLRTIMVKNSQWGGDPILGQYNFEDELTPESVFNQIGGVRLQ
MHV-CoV 3CL^pro, sequence (P0C6X9 3334-3635): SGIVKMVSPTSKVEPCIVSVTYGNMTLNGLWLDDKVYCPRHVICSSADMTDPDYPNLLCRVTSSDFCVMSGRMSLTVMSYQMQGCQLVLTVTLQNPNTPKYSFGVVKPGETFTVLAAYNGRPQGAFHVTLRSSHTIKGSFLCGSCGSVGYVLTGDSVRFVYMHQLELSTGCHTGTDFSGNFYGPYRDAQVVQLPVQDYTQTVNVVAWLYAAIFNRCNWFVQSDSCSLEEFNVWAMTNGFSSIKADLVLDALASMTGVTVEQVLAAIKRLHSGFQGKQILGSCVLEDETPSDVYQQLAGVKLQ

In the case of `COc1cccc2[nH]c(C(=O)N[C@@H](CC(C)C)C(=O)N[C@@H](C[C@@H]3CCNC3=O)C(=O)CO)cc12` [PF-00835231], the “tolerated dose (highest feasible dose tested)” value ([1]; male rats, 4 days continuous IV infusion) is reported as 246 mg/kg/day, the cholesterol vs controls ([1]; non-adverse) is reported as 1.3 x and the “mean triglycerides vs controls” value ([1]; non-adverse) is reported as 1.9-3.6 x. For the same compound, the phosphorus vs controls ([1]; non-adverse) was 1.1 x, the Ki [2] was 1.2 ± 0.9 nM and the microsomal CLint at 1 µM ([3]; liver microsomes) was 14 µL/min/mg. The microsomal CLint at 1 µM ([3]; pooled human liver microsomes) was 7.5 µL/min/mg, the Ki [4] was 4 ± 0.37 nM and the “Initial Velocity” value ([4]; [Compound F2] 1.95312 nM) was 0.9151 and 0.9223 and 0.9303. For the same compound, the “Initial Velocity” value ([4]; [Compound F2] 3.90625 nM) was 0.8719 and 0.9093 and 0.9026, the “Initial Velocity” value ([4]; [Compound F2] 7.8125 nM) was 0.7237 and 0.7704 and 0.7494 and the “Initial Velocity” value ([4]; [Compound F2] 31.25 nM) was 0.2801 and 0.2824 and 0.2905. The “Initial Velocity” value ([4]; [Compound F2] 62.5 nM) was 0.09406 and 0.0968 and 0.1078, the “Initial Velocity” value ([4]; [Compound F2] 250 nM) was 0.02135 and 0.01561 and 0.01396 and the “fm,CYP3A” value ([5]; formation of the metabolite from PF-00835231 in HLM) was 0.86. It also gave a microsomal CLint ([5]; human, pooled human liver microsomes, pH 7.5) of 4.2 µL/min/mg.
For `COc1cccc2[nH]c(C(=O)N[C@@H](CC(C)C)C(=O)N[C@@H](C[C@@H]3CCNC3=O)C(=O)COP(=O)(O)O)cc12` [PF-07304814], the “Hum liver S9 binding” value ([6]; clearance input) was 0.89, the “%Stability” value ([6]; human liver S9 matrix, n=4) was 98% and the recovery at 6 h ([6]; human, human liver S9 binding, MEAN, n 4) was 94%. It also gave a recovery at 6 h ([6]; human, human liver S9 binding, individual replicates) of 95%, a fraction unbound at 6 h ([6]; human, human liver S9, fu MEAN, human liver S9, mean, n=4) of 0.89 and a fraction unbound at 6 h ([6]; human, human liver S9, fu, human liver S9, individual replicates 1-4) of 0.902. It also gave a fraction unbound at 6 h ([6]; human, human liver S9, fu, human liver S9 binding, MEAN, n 4) of 0.89, a fraction unbound at 6 h ([6]; human, human liver S9, fu, human liver S9 binding, individual replicates) of 0.867 and a fraction unbound at 6 h, 2 µM ([6]; human, liver S9, Unbound fraction fu (%CV), human liver S9, 0.03mg/mL protein, 2 µM substrate) of 0.89. For the same compound, the “%Recovery, human liver S9 binding” value ([6]; individual replicates) was 88% and 99%, the “fu, human liver S9 binding” value ([6]; individual replicates) was 0.888 and the “%Stability, human liver S9 binding” value ([6]; mean, n 4) was 98%. The “%unchanged in urine” value ([7]; dog IV, PF-07304814 […], PF-00835231 1.0mg/kg) was less than 0.1%, the “Total Concn, Mean Data” value ([7]; dog plasma, PF-07304814 prodrug dosed […] intravenous, time 8 h, mean, BLQ=0.1ng/mL) was “BLQ” and the “Urine Concn” value ([7]; dog urine 4-8h, PF-07304814 prodrug dosed […] intravenous, individual dogs, BLQ=1ng/mL for urine) was “BLQ”. It also gave a clearance ([7]; CLp, dog IV (n=2, range), PF-07304814 […], PF-00835231 1.0mg/kg) of 517 mL/min/kg, a half-life ([7]; Terminal T1/2, dog IV (n=2, range), PF-07304814 […], PF-00835231 1.0mg/kg) of 30 min and a Vd ([7]; dog IV (n=2, range), PF-07304814 […], PF-00835231 1.0mg/kg) of 9.3 L/kg. It also gave a clearance ([7]; […], Clearance, Mean Data, PF-07304814 prodrug dosed […] intravenous, mean) of 517 mL/min/kg, a half-life ([7]; […], Half life, Mean Data, PF-07304814 prodrug dosed […] intravenous, mean) of 30.6 min and a Vd ([7]; […], Mean Data, PF-07304814 prodrug dosed […] intravenous, mean) of 9.3 L/kg. For the same compound, the “Measured blood partitioning / Human blood partitioning” value [8] was 0.6, the “Plasma concentration (Cp)” value ([8]; Mean) was 1970 nM and the “Whole blood concentration (Cb)” value ([8]; Mean) was 1.08 µM. The “Plasma concentration (Cp)” value ([8]; individual replicates) was 2010 nM and 2000 nM and 1900 nM and 1950 nM and the “Whole blood concentration (Cb)” value ([8]; individual replicates) was 1.11 µM and 1.06 µM and 1.1 µM.
